In patent US20090311227A1, “Composition” (Danisco A/S, priority 2006, published 2009):

Assays:
[1] = system: rats with visceral hypersensitivity induced by the butyrate; experiment: CRD test, role of CB2 and MOR receptors in NCFM-induced analgesia (antagonists) in butyrate-treated rats; assay type: in vivo, rat; conditions: for effect on NCFM-induced analgesia: butyrate-treated rats receiving NCFM 10^9 CFU/day 15 days, antagonist given peritoneally 30 min before CRD (AM630, naloxone methiodide 2 mg/kg); for effect on pain perception in control rats: control rats with butyrate-induced visceral hypersensitivity, no NCFM, AM630 or naloxone methiodide 2 mg/kg, 30 min before CRD
Description: (§1) Male Sprague-Dawley rats (Charles River, l'Arbresle, France) weighing 175-200 g were used in this study. Rats were maintained in laboratory conditions for 1 week before experiment. The animals were housed 5 per cage with food and water available ad libitum. All studies were performed in accordance with the proposal of the committee for Research and Ethical Issues of the International Association for the Study of Pain (Zimmermann M, Pain. 1983; 16:109-110). Great care was taken, particularly with regard to housing conditions, to avoid or minimize discomfort to the animals.
For each enema, a catheter (2-mm Fogarty catheter) was placed in the colon at 7 cm from the anus, and the animals received 1 ml of 200 mM of sodium butyrate at neutral pH (pH6.9) twice daily for 3 days. Healthy animals received saline.
Nociception in the animals was assessed by measuring the intracolonic pressure required to induce a behavioral response during colorectal distension (CRD) due to the inflation of a balloon introduced in the colon. This response was characterized by an elevation of the hind part of the animal body and clearly visible abdominal contraction corresponding to the severe contractions (Al Chaer, gastro 2000; Tarrerias, pain 2002; Bourdu et al., 2005). Briefly, rats were anesthetized with volatile anaesthesia (2% isoflurane), the balloon (prepared as previously described in Bourdu & al, 2005) was inserted intrarectally in a minimally invasive manner to 7 cm from the anus, and the catheter was taped to the base of the tail. After 5 minutes, rats were placed in the middle of a 40×40-cm Plexiglas box and the catheter was connected to an electronic barostat apparatus (Synectics Visceral Stimulator; Medtronic, Boulogne-Billancourt, France).
Four groups of animals treated with butyrate were used (n=10/group). Two groups were treated once a day during fifteen days by gastric gavage, 10^9 CFU of NCFM strain and the two other groups of butyrate-treated animals received CarboxyMethyl Cellulose (CMC) by the same route and during the same time. NCFM strain was resuspended in 0.5% CMC (CarboxyMethyl Cellulose, Sigma). Butyrate instillations began 7 days after the first gavage for three days. Colonic hypersensitivity was determined 14 days after the after beginning of oral treatment thus 7 days after colonic instillations. […]
(§2) All experiments were performed in a blind manner by the same experimenter using the block method. Results are expressed as mean±SEM of raw data. Results of CRD testing were analysed using one-way analysis of variance (ANOVA) followed of a Bonferroni post-hoc test to compare several treatments. […]

[2] = system: rats with colonic hypersensitivity induced by butyrate; experiment: CRD test, probiotic co-administered with suboptimal morphine in rats with butyrate-induced colonic hypersensitivity; assay type: in vivo, rat; conditions: butyrate-treated rats
Description: as §1, with “Pain” for “Pain.”, “animals. […]” for “animals.”
Nociception in the animals was assessed by measuring the intracolonic pressure required to induce a behavioral response during colorectal distension (CRD) due to the inflation of a balloon introduced in the colon. […]
Four groups of animals treated with butyrate were used (n=10/group). […] Colonic hypersensitivity was determined 14 days after the after beginning of oral treatment thus 7 days after colonic instillations. […]
as §2

[3] = system: rats with colonic hypersensitivity induced by butyrate enemas; conditions: rat with visceral hypersensitivity induced by butyrate; known from Bourdu et al; cited from earlier work

Row | Compound | effect on NCFM-induced analgesia [1] | effect on pain perception in control rats [1] | pain threshold ([2]; morphine 0.1 mg/kg subcutaneously alone, 30 min before CRD, mean±SEM) | difference on pain threshold vs rats not receiving morphine ([2]; suboptimal dosage of morphine 0.1 mg/kg) | effect on colonic hypersensitivity in CRD test [3]
1 | COc1ccc(C(=O)c2c(C)n(CCN3CCOCC3)c3cc(I)ccc23)cc1 [AM630] | significantly inhibited | no effect |  |  | 
2 | C=CC[N+]1(C)CC[C@]23c4c5ccc(O)c4O[C@H]2C(=O)CC[C@@]3(O)[C@H]1C5 (stereo partly shown) [NLX, naloxone methiodide] | not | no effect |  |  | 
3 | CN1CC[C@]23c4c5ccc(O)c4O[C@H]2[C@@H](O)C=C[C@H]3[C@H]1C5 [morphine] |  |  | 41.5±2.4 | No difference | dose-dependent decrease
